From patent US9096615B2, “Bridged bicyclic amino thiazine dioxide compounds as inhibitors of beta-secretase and methods of use thereof” (AMGEN INC., priority 2013, dated 2015)
Where two headings read alike, the source gives them in different places.

Assays:
BACE1 = BACE1 (Homo sapiens, UniProt P56817); assay: In vitro enzymatic BACE FRET assay; type: biochemical
Method in brief: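 Fluorescence (excitation 488 nm, […]) from cleavage of quenched peptide substrate (50 nM), reaction run 1 h after 1 h enzyme–inhibitor pre-incubation, then neutralised with Tris. Conditions: 0.2 nM enzyme, pH 4.2 acetate 0.05 M, 10% DMSO final, 100 uM genapol.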

[1] = system: Aβ40 in conditioned medium of cells stably expressing Amyloid Precursor Protein (APP); assay: In vitro BACE cell-based assay (HEK cell assay, Aβ40 sandwich ELISA); conditions: Homo sapiens, HEK293
Method in brief: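 IC50 was derived from percent-of-control Aβ40 against concentration, with Aβ40 quantified by time-resolved fluorescence ELISA (pAb40/6E10-biotin, 4 °C incubations). Supernatants were sampled after 24 h of compound exposure (10 points, starting 100 or 10 μM, 0.1% DMSO) of cells stably expressing APP.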

Cathepsin D (Cat D) = molecular target: T1, Cathepsin D (Cat D) (Homo sapiens, UniProt P07339); assay: In vitro enzymatic Cathepsin D (Cat D) FRET assay; type: biochemical; conditions: read-out: CatD IC50
T1 construct: made in house; host or cells: CHO cells
T1 sequence (P07339 65-412, species assumed): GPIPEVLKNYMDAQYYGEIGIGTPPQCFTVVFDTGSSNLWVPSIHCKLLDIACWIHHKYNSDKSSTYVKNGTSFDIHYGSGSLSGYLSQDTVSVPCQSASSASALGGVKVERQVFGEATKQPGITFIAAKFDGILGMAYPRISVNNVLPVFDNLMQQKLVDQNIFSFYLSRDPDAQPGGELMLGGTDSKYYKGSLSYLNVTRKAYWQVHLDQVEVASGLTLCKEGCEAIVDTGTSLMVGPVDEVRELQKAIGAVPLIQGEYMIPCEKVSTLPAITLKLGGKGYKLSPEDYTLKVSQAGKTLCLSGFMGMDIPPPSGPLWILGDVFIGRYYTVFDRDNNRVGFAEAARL
Method in brief: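 Fluorescence (500 nm excitation, 580 nm emission) was measured after Tris quench of a 1 h cleavage of 20 nM quenched peptide substrate. Before that, 9 nM CHO-expressed human Cat D sat with compound for 1 h at pH 3.5 (0.05 M citrate, 5 mM CHAPS, 10% DMSO final).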

[2] = read-out: BACE1 FRET assay IC50
[3] = Aβ40, 24 h incubation, read-out: HEK cell assay IC50
[4] = average IC50, read-out: BACE1 Enzyme assay IC50
[5] = average IC50, read-out: BACE1 cell assay IC50

Chain of BACE1 (P56817 46-501, species assumed): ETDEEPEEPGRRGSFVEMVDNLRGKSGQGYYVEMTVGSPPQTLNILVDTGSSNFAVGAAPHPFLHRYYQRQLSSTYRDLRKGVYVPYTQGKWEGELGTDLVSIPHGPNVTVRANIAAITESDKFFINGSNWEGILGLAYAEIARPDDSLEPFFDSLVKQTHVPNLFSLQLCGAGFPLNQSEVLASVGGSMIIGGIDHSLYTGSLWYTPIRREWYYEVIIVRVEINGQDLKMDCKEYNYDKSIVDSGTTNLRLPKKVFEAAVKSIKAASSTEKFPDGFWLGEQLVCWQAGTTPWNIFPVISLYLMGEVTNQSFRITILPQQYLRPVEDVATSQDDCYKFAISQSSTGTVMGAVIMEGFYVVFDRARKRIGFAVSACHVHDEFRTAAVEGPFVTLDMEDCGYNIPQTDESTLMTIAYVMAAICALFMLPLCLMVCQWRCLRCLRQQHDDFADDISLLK

| SMILES | IC50 (BACE1; [2]) | IC50 [1, 3] | IC50 (Cathepsin D (Cat D)) | IC50 (BACE1; [4]) | IC50 [1, 5] | IC50 (Cathepsin D (Cat D); average IC50, first procedure) |
| --- | --- | --- | --- | --- | --- | --- |
| COc1cnc2c(Nc3ccc(F)c([C@@]4(C)N=C(N)[C@@]5(C)CC[C@@H]4S5(=O)=O)c3)ncc(F)c2c1 [Example 36, N-(3-((1S,2R,5R)-4-amino-2,5-dimethyl-8,8-dioxido-8-thia-3-azabicyclo[3.2.1]oct-3-en-2-yl)-4-fluorophenyl)-5-fluoro-3-methoxy-1,7-naphthyridin-8-amine] | 0.002 µM | 0.006 µM | 5490 µM | – | – | – |
| Cc1cc(OC(F)F)cnc1C(=O)Nc1ccc(F)c([C@@]2(C)N=C(N)[C@@]3(C)CCC[C@@H]2S3(=O)=O)c1 [Example 5, N-(3-((1S,2R,5R)-4-Amino-2,5-dimethyl-9,9-dioxido-9-thia-3-azabicyclo[3.3.1]non-3-en-2-yl)-4-fluorophenyl)-5-(difluoromethoxy)-3-methylpicolinamide] | 0.003 µM | 0.004 µM | 105 µM | – | – | – |
| Cc1cc(OC(F)F)cnc1C(=O)Nc1ccc(F)c([C@@]2(C)N=C(N)[C@@H]3CCC[C@H]2S3(=O)=O)c1 [Example 18, N-(3-((1R,2R,5S)-4-Amino-2-methyl-9,9-dioxido-9-thia-3-azabicyclo[3.3.1]non-3-en-2-yl)-4-fluorophenyl)-5-(difluoromethoxy)-3-methylpicolinamide] | 0.043 µM | 0.018 µM | 690 µM | – | – | – |
| C[C@]12CC[C@H]([C@@](C)(c3cc(Nc4nccc5nc(OCC6CC6)cnc45)ccc3F)N=C1N)S2(=O)=O [Example 67, N-(3-((1R,2R,5S)-4-amino-2,5-dimethyl-8,8-dioxido-8-thia-3-azabicyclo[3.2.1]oct-3-en-2-yl)-4-fluorophenyl)-2-(cyclopropylmethoxy)pyrido[3,4-b]pyrazin-5-amine] | – | – | – | 0.156 µM | 0.522 µM | 99.3 µM |
| Cc1cc(C(F)(F)F)cnc1C(=O)Nc1ccc(F)c([C@@]2(C)N=C(N)[C@]3(CF)CC[C@H]2S3(=O)=O)c1 [Example 93, N-(3-((1R,2R,5S)-4-amino-5-(fluoromethyl)-2-methyl-8,8-dioxido-8-thia-3-azabicyclo[3.2.1]oct-3-en-2-yl)-4-fluorophenyl)-3-methyl-5-(trifluoromethyl)-2-pyridinecarboxamide] | – | – | – | 0.04 µM | 0.035 µM | 1590 µM |
| C[C@]1(c2cc(NC(=O)c3ccc(C(F)(F)F)cc3F)ccc2F)N=C(N)[C@@]2(C)CC[C@@H]1S2(=O)=O [Example 121, N-(3-((1S,2R,5R)-4-amino-2,5-dimethyl-8,8-dioxido-8-thia-3-azabicyclo[3.2.1]oct-3-en-2-yl)-4-fluorophenyl)-2-fluoro-4-(trifluoromethyl)benzamide] | – | – | – | 0.41 µM | 0.15 µM | > 400 µM |
| Cc1cc(Cl)cnc1C(=O)Nc1ccc(F)c([C@@]2(C)N=C(N)[C@@H]3CCC[C@H]2S3(=O)=O)c1 [Example 17, N-(3-((1R,2R,5S)-4-Amino-2-methyl-9,9-dioxido-9-thia-3-azabicyclo[3.3.1]non-3-en-2-yl)-4-fluorophenyl)-5-chloro-3-methylpicolinamide] | 0.015 µM | 0.064 µM | 2780 µM | – | – | – |
| Cc1cc(Cl)cnc1C(=O)Nc1ccc(F)c([C@@]2(C)N=C(N)[C@@]3(C)CC[C@]2(C)S3(=O)=O)c1 [Example 31, N-(3-((1S,2R,5R)-4-amino-1,2,5-trimethyl-8,8-dioxido-8-thia-3-azabicyclo[3.2.1]oct-3-en-2-yl)-4-fluorophenyl)-5-chloro-3-methylpicolinamide] | 0.004 µM | 0.012 µM | 56.9 µM | – | – | – |
| C[C@]1(c2cc(Nc3nccc4nc(C(F)(F)F)cnc34)ccc2F)N=C(N)[C@@]2(C)CC[C@@H]1S2(=O)=O [Example 86, N-(3-((1S,2R,5R)-4-amino-2,5-dimethyl-8,8-dioxido-8-thia-3-azabicyclo[3.2.1]oct-3-en-2-yl)-4-fluorophenyl)-2-(trifluoromethyl)pyrido[3,4-b]pyrazin-5-amine] | – | – | – | 0.023 µM | 0.067 µM | > 44.4 µM |
| C[C@]1(c2cc(NC(=O)c3ncc(C(F)(F)F)cc3Cl)ccc2F)N=C(N)[C@@]2(CF)CC[C@@H]1S2(=O)=O [Example 108, N-(3-((1S,2R,5R)-4-amino-5-(fluoromethyl)-2-methyl-8,8-dioxido-8-thia-3-azabicyclo[3.2.1]oct-3-en-2-yl)-4-fluorophenyl)-3-chloro-5-(trifluoromethyl)-2-pyridinecarboxamide] | – | – | – | 0.008 µM | 0.007 µM | > 400 µM |
| C[C@]1(c2cc(Nc3ncc(F)c4cc(O)cnc34)ccc2F)N=C(N)[C@@]2(C)CC[C@@H]1S2(=O)=O [Example 39, (1R,4R,5S)-2-amino-4-(2-fluoro-5-((5-fluoro-3-hydroxy-1,7-naphthyridin-8-yl)amino)phenyl)-1,4-dimethyl-8-thia-3-azabicyclo[3.2.1]oct-2-ene 8,8-dioxide] | – | – | – | 0.001 µM | 0.009 µM | 191 µM |
| COc1cnc2c(Nc3ccc(F)c([C@@]4(C)N=C(N)[C@@H]5CCC[C@H]4S5(=O)=O)c3)nccc2n1 (stereo in doubt) [Example 19] | 0.323 µM | 0.179 µM | 1210 µM | – | – | – |

Results, then the compound that gave them:

| IC50 (BACE1; [2]) | IC50 [1, 3] | IC50 (Cathepsin D (Cat D)) | IC50 (BACE1; [4]) | IC50 [1, 5] | IC50 (Cathepsin D (Cat D); average IC50, first procedure) | SMILES |
| --- | --- | --- | --- | --- | --- | --- |
| – | – | – | 0.061 µM | 0.253 µM | 5340 µM | C[C@]12CC[C@H]([C@@](C)(c3cc(Nc4ncc(F)c5cc(OCC6CC6)cnc45)ccc3F)N=C1N)S2(=O)=O [Example 136, N-(3-((1R,2R,5S)-4-amino-2,5-dimethyl-8,8-dioxido-8-thia-3-azabicyclo[3.2.1]oct-3-en-2-yl)-4-fluorophenyl)-3-(cyclopropylmethoxy)-5-fluoro-1,7-naphthyridin-8-amine] |
| – | – | – | 0.905 µM | 0.255 µM | > 400 µM | C[C@]12CC[C@H]([C@@](C)(c3cc(NC(=O)c4ccc(C(F)(F)F)cc4F)ccc3F)N=C1N)S2(=O)=O [Example 122, N-(3-((1R,2R,5S)-4-amino-2,5-dimethyl-8,8-dioxido-8-thia-3-azabicyclo[3.2.1]oct-3-en-2-yl)-4-fluorophenyl)-2-fluoro-4-(trifluoromethyl)benzamide] |
| – | – | – | 0.004 µM | 0.071 µM | > 400 µM | CCCOc1cnc2c(Nc3ccc(F)c([C@@]4(C)N=C(N)[C@@]5(C)CC[C@@H]4S5(=O)=O)c3)nccc2n1 [Example 144, N-(3-((1S,2R,5R)-4-amino-2,5-dimethyl-8,8-dioxido-8-thia-3-azabicyclo[3.2.1]oct-3-en-2-yl)-4-fluorophenyl)-2-propoxypyrido[3,4-b]pyrazin-5-amine] |
| – | – | – | 0.003 µM | 0.021 µM | 614 µM | CC#CCOc1cnc2c(Nc3ccc(F)c([C@@]4(C)N=C(N)[C@]5(C)CC[C@H]4S5(=O)=O)c3)ncc(F)c2c1 [Example 135, N-(3-((1R,2R,5S)-4-amino-2,5-dimethyl-8,8-dioxido-8-thia-3-azabicyclo[3.2.1]oct-3-en-2-yl)-4-fluorophenyl)-3-(2-butyn-1-yloxy)-5-fluoro-1,7-naphthyridin-8-amine] |
| – | – | – | 0.005 µM | 0.004 µM | 363 µM | C[C@]1(c2cc(Nc3ncnc4cc(Cl)cnc34)ccc2F)N=C(N)[C@@]2(C)CC[C@@H]1S2(=O)=O [Example 130, N-(3-((1S,2R,5R)-4-amino-2,5-dimethyl-8,8-dioxido-8-thia-3-azabicyclo[3.2.1]oct-3-en-2-yl)-4-fluorophenyl)-7-chloropyrido[3,2-d]pyrimidin-4-amine] |
| – | – | – | 0.009 µM | 0.164 µM | 150 µM | CC(C)COc1cnc2c(Nc3ccc(F)c([C@@]4(C)N=C(N)[C@@]5(C)CC[C@@H]4S5(=O)=O)c3)nccc2n1 [Example 143, N-(3-((1S,2R,5R)-4-amino-2,5-dimethyl-8,8-dioxido-8-thia-3-azabicyclo[3.2.1]oct-3-en-2-yl)-4-fluorophenyl)-2-(2-methylpropoxy)pyrido[3,4-b]pyrazin-5-amine] |
| – | – | – | 0.096 µM | 0.026 µM | 1160 µM | COc1cnc2c(Nc3ccc(F)c([C@@]4(C)N=C(N)[C@]5(C)CC[C@H]4S5(=O)=O)c3)ncnc2c1 [Example 133, N-(3-((1R,2R,5S)-4-amino-2,5-dimethyl-8,8-dioxido-8-thia-3-azabicyclo[3.2.1]oct-3-en-2-yl)-4-fluorophenyl)-7-methoxypyrido[3,2-d]pyrimidin-4-amine] |
| – | – | – | 0.061 µM | 0.122 µM | > 400 µM | CC#CCOc1ccc(C(=O)Nc2ccc(F)c([C@@]3(C)N=C(N)[C@@]4(C)CC[C@@H]3S4(=O)=O)c2)c(F)c1 [Example 138, N-(3-((1S,2R,5R)-4-amino-2,5-dimethyl-8,8-dioxido-8-thia-3-azabicyclo[3.2.1]oct-3-en-2-yl)-4-fluorophenyl)-4-(2-butyn-1-yloxy)-2-fluorobenzamide] |
| – | – | – | 0.315 µM | 0.073 µM | 2200 µM | C[C@]12CC[C@H]([C@@](C)(c3cc(NC(=O)c4c(F)cc(Br)cc4F)ccc3F)N=C1N)S2(=O)=O [Example 126, N-(3-((1R,2R,5S)-4-amino-2,5-dimethyl-8,8-dioxido-8-thia-3-azabicyclo[3.2.1]oct-3-en-2-yl)-4-fluorophenyl)-4-bromo-2,6-difluorobenzamide] |
